Assay results published in PubChem BioAssay (NCI).
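Exposure lasted 48 hours, with cells grown in 96-well plates and compounds tested at five concentrations. The concentration for 50% growth inhibition is given as GI50. The concentration for full growth arrest is given as TGI.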

Tests used:
Test in all cases: inhibition of tumour cell growth, NCI panel, 48 h; in the data active means GI50 below about 0.43 µM; inactive means the rest
[1] = system: SNB-19 CNS
[2] = system: XF 498 CNS
[3] = system: HL-60(TB) leukemia
[4] = system: A549 NSCLC
[5] = system: UACC-257 melanoma
[6] = system: SNB-75 CNS
[7] = system: RPMI-8226 leukemia
[8] = system: A498 renal
[9] = system: SF-539 CNS
[10] = system: IGROV1 ovarian
[11] = system: TK-10 renal
[12] = system: CCRF-CEM leukemia
[13] = system: UO-31 renal
[14] = system: OVCAR-3 ovarian
[15] = system: HCT-15 colon
[16] = system: UACC-62 melanoma
[17] = system: ACHN renal
[18] = system: SNB-78 CNS
[19] = system: SF-268 CNS
[20] = system: CAKI-1 renal
[21] = system: SF-295 CNS
[22] = system: DMS 273 small cell lung
[23] = system: MOLT-4 leukemia
[24] = system: KM20L2 colon
[25] = system: HOP-18 NSCLC
[26] = system: U251 CNS
[27] = system: COLO 205 colon
[28] = system: SK-MEL-2 melanoma
[29] = system: LOX IMVI melanoma
[30] = system: NCI-H23 lung
[31] = system: HOP-92 NSCLC
[32] = system: OVCAR-5 ovarian
[33] = system: DMS 114 small cell lung
[34] = system: OVCAR-8 ovarian
[35] = system: OVCAR-4 ovarian
[36] = system: LXFL 529 NSCLC
[37] = system: KM12 colon
[38] = system: NCI-H226 lung
[39] = system: SK-MEL-5 melanoma
[40] = system: SN12C renal
[41] = system: 786-0 renal
[42] = system: SK-OV-3 ovarian
[43] = system: SW-620 colon
[44] = system: HOP-62 NSCLC
[45] = system: MALME-3M melanoma
[46] = system: DLD-1 colon
[47] = system: M14 melanoma
[48] = system: EKVX NSCLC
[49] = system: RXF 393 renal
[50] = system: HCC-2998 colon
[51] = system: K-562 leukemia
[52] = system: SK-MEL-28 melanoma

O=C1OC(c2cccc(C(F)(F)F)c2)(c2cccc(C(F)(F)F)c2)c2ccc3ccccc3c21
> 100 µM: TGI [1] | TGI [2] | TGI [3] | TGI [4] | TGI [5] | TGI [6] | TGI [7] | TGI [8] | TGI [9] | TGI [10] | TGI [11] | TGI [12] | TGI [13] | TGI [14] | TGI [15] | TGI [16] | TGI [17] | TGI [18] | TGI [19] | TGI [20] | TGI [21] | TGI [22] | TGI [23] | TGI [24] | TGI [25] | TGI [26] | TGI [27] | TGI [28] | TGI [29] | TGI [30] | TGI [31] | TGI [32] | TGI [33] | TGI [34] | TGI [35] | TGI [36] | TGI [37] | TGI [38] | TGI [39] | TGI [40] | TGI [41] | TGI [42] | TGI [43] | TGI [44] | TGI [45] | TGI [46] | TGI [47] | TGI [48] | TGI [49] | TGI [50] | TGI [51] | TGI [52]
inactive: GI50 [4] > 100 µM | GI50 [6] > 100 µM | GI50 [7] 7.56 µM | GI50 [8] > 100 µM | GI50 [10] > 100 µM | GI50 [11] > 100 µM | GI50 [12] 9.13 µM | GI50 [13] > 100 µM | GI50 [14] 22.4 µM | GI50 [16] > 100 µM | GI50 [18] > 100 µM | GI50 [22] > 100 µM | GI50 [23] 7.21 µM | GI50 [25] > 100 µM | GI50 [27] > 100 µM | GI50 [28] > 100 µM | GI50 [29] > 100 µM | GI50 [30] 3.92 µM | GI50 [32] > 100 µM | GI50 [33] 4.44 µM | GI50 [34] > 100 µM | GI50 [35] > 100 µM | GI50 [36] 7.26 µM | GI50 [39] 5.26 µM | GI50 [40] > 100 µM | GI50 [41] > 100 µM | GI50 [42] > 100 µM | GI50 [43] > 100 µM | GI50 [44] > 100 µM | GI50 [45] > 100 µM | GI50 [46] > 100 µM | GI50 [47] > 100 µM | GI50 [48] > 100 µM | GI50 [50] > 100 µM | GI50 [51] 4.29 µM | GI50 [52] > 100 µM
